Columns and labels:
HSV-1 [1] = test: Anti-HSV screening assay (viral plaques), HSV-1; format: cell-based; conditions: 100 μg/mL, viral plaques relative to mock treated controls
Experimental: (§1) African green monkey kidney (GMK AH1) cells^46 were cultured in Eagle's minimum essential medium (EMEM) supplemented with 2% calf serum, 0.05% Primaton RL substance (Kraft Inc., Norwich, USA) and antibiotics. Human epidermoid carcinoma (HEp-2) cells were cultured in Dulbecco's modified EMEM (DMEM) supplemented with 10% fetal calf serum and antibiotics. […] The RSV strain A-2^50 was used. The RSV stock was prepared as described by Hallak et al.^51 and stored at −70° C. in the presence of 40% sucrose^52.
(§2) The viral infectivity (the plaque number-reduction) assay and the plaque size-reduction assay were carried out as described previously^17. […] Subsequently, the cells were washed with 2 mL of EMEM and overlaid with 1% methylcellulose solution in EMEM. The plaques were visualized by staining with crystal violet solution after 2 (HSV-2) or 3 (HSV-1) days of incubation at 37° C. […] When the compounds were screened for anti-HSV or anti-RSV activity, mixtures of 200 PFU of the virus and the test compound (100 μg/mL) in serum-free EMEM were incubated for 10 min at room temperature before addition to cells and during the entire period of viral infection of cells and the development of viral plaques. In the plaque size-reduction assay, the compounds were added to cells (in methylcellulose overlay medium) after 2 h period of virus infection of cells in the absence of the inhibitor. After 2-3 days of incubation at 37° C., the viral plaques were visualized by staining the cells with 1% solution of crystal violet. For each compound tested, the images of twenty neighboring plaques were captured using a Leica DC300 digital camera attached to a Leitz-Wetzlar Diavert microscope. The area of each plaque was determined using IM500 image software (Leica). Similar protocols were used for RSV, except that the assays were performed in HEp-2 cells and DMEM supplemented with 2% heat-inactivated fetal calf serum was used instead of EMEM.

HSV-1 [2] = test: Virus inactivation assay, HSV-1; format: cell-based; conditions: 15 min at 37° C.
Experimental: (§3) Approximately 10^5 plaque-forming units of HSV-1 KOS321 or HSV-2 333 stain and specific concentrations of the test compound in 200 μL of serum-free EMEM were mixed and incubated at 37° C. for 15 min. The mixtures were diluted to the non-inhibitory concentrations of the test compound, and then subjected to the infectious titer determination as described under the viral plaque number-reduction assay. In case of RSV, the assay was carried out in similar manner using DMEM supplemented with 2% heat-inactivated fetal calf serum instead of EMEM. To evaluate the effect of a low pH value or the presence of cervical secretions; the virus (HSV-2 333) and compounds were diluted in a low pH buffer (4.5) or cervical secretions were added to the compound dilutions before mixing with the virus (HSV-2 333). The cervical secretions were prepared from cervical swabs generated from 3 different individuals. The swabs were rinsed with distilled water and centrifuged at 5000×g for 10 min. The supernatant was kept at −20° C. In the case of RSV, the assay was carried out in a similar manner using DMEM supplemented with 2% heat-inactivated fetal calf serum instead of EMEM.

GMK AH1 cells = test: Cytotoxicity assay, GMK AH1; format: cell-based, African green monkey; conditions: cell viability reduced by 50%
Experimental: The assay was performed in GMK AH1 cells that had been seeded in 96 well cluster plates and reached approximately 80-90% confluence at day 2 of culture. The cells were washed with EMEM and incubated for 24 h at 37° C. with 100 μL of serial two-fold dilutions of the test compound in serum-free EMEM. The effect of the test compound on cell viability was measured by using the tetrazolium-based CellTiter96 assay according to the manufacturer's protocol (Promega, Madison, Wis., USA).

RSV = test: Virus inactivation assay, RSV; format: cell-based; conditions: 15 min at 37° C.
Experimental: as §3

HSV-2 = test: Anti-HSV screening assay (viral plaques), HSV-2; format: cell-based; conditions: 100 μg/mL, viral plaques relative to mock treated controls
Experimental: as §1, §2

HEp-2 cells = test: Cytotoxicity assay, HEp-2; format: cell-based, Human; conditions: cell viability reduced by 50%
rat aortic tissue = test: Ex vivo angiogenic sprout assay (rat aortic angiogenesis assay); format: cell-based, Sprague Dawley rats
Experimental: Explants from rat aortas were prepared by a modification of protocols previously described^42-54. In this model, the rat aortic endothelium exposed to a three dimensional matrix of ECM-derived proteins (Matrigel™), switches to a microvascular phenotype, generating branching networks of microvessels.
Briefly, thoracic aortas were excised from 2- to 4-month old Sprague Dawley rats and trimmed of remaining fat and connective tissue. Great care was taken at every stage to reduce physical damage of the aorta. Tissue was transferred to complete EBM-2 media (Cambrex) containing 2% FCS and all Singlequots™ (Cambrex) reagents except for heparin. Meanwhile, Matrigel™ (BD Biosciences) was allowed to cool on ice and once in a liquid form, 180 μL was pipetted into 48-well tissue culture plates (Nunc). The plates were incubated at 37° C. for 30 min to allow Matrigel™ to solidify.
Aortas were prepared by cutting 1 mm ring sections and then being bisected. Aortic segments were then carefully placed on top on the Matrigel™ in the centre of each well and once orientated as required, 60 μL of extra Matrigel™ was placed on top and the plate was returned to the incubator for a further 20 min. Each well was then supplemented with 1.0 mL media in the absence (control) or presence of test compounds usually at two concentrations within the range of 1-50 μM, depending on the particular compound/experiment. Cultures were replenished as appropriate every 48 h and scoring of microvessels was carried out at various timepoints up to 8-10 days. The extent of microvessel sprouting was determined by employing a scoring system from 0-5, where 0=no microvessels to 5=diffuse angiogenesis as previously described^45. Sprouting vessels were photographed using the 4× objective with an Olympus C-7070 camera and an adaptor for the eyepiece.
In some instances, to determine the potential toxicity of compounds in this assay, the viability of the tissue was assessed by withdrawing the compound/media from the culture on day 6 or 7 and adding complete media with VEGF (typically 10 ng/mL) for up to an additional 7 days. In the absence of toxicity, the viable tissue should sprout microvessels in response to the exogenous growth factor.
The inhibitory effect of compounds of the present invention on angiogenesis was assayed using the angiogenic sprout/microvessel formation (rat aortic) assay described above. Embedding of the rat aortic tissue in Matrigel™ in the absence of any inhibitor (control) yielded extensive angiogenic sprouting (as a score of 5 indicates diffuse angiogenesis) as illustrated by FIG. 1.

| Structure (SMILES) | Residual infectivity (%) HSV-1 (HSV-1 [1]) [%] | Virus-inactivating activity: viral plaques with compound-treated virus relative to mock-treated controls (HSV-1 [2]; HSV-1, 1 μg/ml) [%] | Virus-inactivating activity: viral plaques with compound-treated virus relative to mock-treated controls (HSV-1 [2]; HSV-1, 10 μg/ml) [%] | Virus-inactivating activity: viral plaques with compound-treated virus relative to mock-treated controls (HSV-1 [2]; HSV-1, 100 μg/ml) [%] | Cytotoxicity CC50 GMK AH1 (GMK AH1 cells) [µg/mL] | Virus-inactivating activity: viral plaques with compound-treated virus relative to mock-treated controls (RSV; 4 μg/ml) [%] | Virus-inactivating activity: viral plaques with compound-treated virus relative to mock-treated controls (RSV; 20 μg/ml) [%] | Virus-inactivating activity: viral plaques with compound-treated virus relative to mock-treated controls (RSV; 100 μg/ml) [%] | Residual infectivity (%) HSV-2 (HSV-2) [%] | Cytotoxicity CC50 HEp-2 (HEp-2 cells) [µg/mL] | % Inhibition of Angiogenesis (10 μM) (rat aortic tissue; 10 μM) [%] | inhibition at 10 µM (rat aortic tissue; Rattus norvegicus) [%] |
| --- | --- | --- | --- | --- | --- | --- | --- | --- | --- | --- | --- | --- |
| CCCCCCCCCCCCOC1OC(COS(=O)(=O)O)C(OS(=O)(=O)O)C(OS(=O)(=O)O)C1OC1OC(COS(=O)(=O)O)C(OS(=O)(=O)O)C(OC2OC(COS(=O)(=O)O)C(OS(=O)(=O)O)C(OC3OC(COS(=O)(=O)O)C(OS(=O)(=O)O)C(OC4OC(COS(=O)(=O)O)C(OS(=O)(=O)O)C(OS(=O)(=O)O)C4OS(=O)(=O)O)C3OS(=O)(=O)O)C2OS(=O)(=O)O)C1OS(=O)(=O)O [Compound 4, Dodecyl 2,3,4,6-tetra-O-sodium sulfonato-α-D-mannopyranosyl-(1→3)-2,4,6-tri-O-sodium sulfonato-α-D-mannopyranosyl-(1→3)-2,4,6-tri-O-sodium sulfonato-α-D-mannopyranosyl-(1→3)-2,4,6-tri-O-sodium sulfonato-α-D-mannopyranosyl-(1→2)-3,4,6-tri-O-sodium sulfonato-α-D-mannopyranoside] | 2 | 83.9 | 79.4 | 83.8 | >400 | 85.2 | 82.2 | 47.3 | 0.7 | >400 |  |  |
| CC(C)CCCC(C)C1CCC2C3CCC4CC(OC5OC(COS(=O)(=O)O)C(OS(=O)(=O)O)C(OS(=O)(=O)O)C5OC5OC(COS(=O)(=O)O)C(OS(=O)(=O)O)C(OC6OC(COS(=O)(=O)O)C(OS(=O)(=O)O)C(OC7OC(COS(=O)(=O)O)C(OS(=O)(=O)O)C(OS(=O)(=O)O)C7OS(=O)(=O)O)C6OS(=O)(=O)O)C5OS(=O)(=O)O)CCC4(C)C3CCC12C [Compound 20, 3β-Cholestanyl 2,3,4,6-tetra-O-sodium sulfonato-α-D-mannopyranosyl-(1→3)-2,4,6-tri-O-sodium sulfonato-α-D-mannopyranosyl-(1→3)-2,4,6-tri-O-sodium sulfonato-α-D-mannopyranosyl-(1→2)-3,4,6-tri-O-sodium sulfonato-α-D-mannopyranoside] | 0 | 88.6 | 0 | 0 | 110 | 102.2 | 79.0 | 13.3 | 0 | 113 |  |  |
| CC(C)CCC[C@@H](C)[C@H]1CC[C@H]2[C@@H]3CCC4CC(OCc5cn([C@@H]6O[C@H](COS(=O)(=O)[O-])[C@@H](O[C@H]7O[C@H](COS(=O)(=O)[O-])[C@@H](O[C@H]8O[C@H](COS(=O)(=O)[O-])[C@@H](OS(=O)(=O)[O-])[C@H](OS(=O)(=O)[O-])[C@H]8OS(=O)(=O)[O-])[C@H](OS(=O)(=O)[O-])[C@H]7OS(=O)(=O)[O-])[C@H](OS(=O)(=O)[O-])[C@H]6OS(=O)(=O)[O-])nn5)CC[C@]4(C)[C@H]3CC[C@]12C.[Na+].[Na+].[Na+].[Na+].[Na+].[Na+].[Na+].[Na+].[Na+].[Na+] (stereo partly drawn) [Compound 70, 4-(Cholestan-3-yl-oxymethyl)[1,2,3]triazol-1-yl 2,3,4,6-tetra-O-sodium sulfonato-α-D-glucopyranosyl-(1→4)-2,3,6-tri-O-sodium sulfonato-α-D-glucopyranosyl-(1→4)-1-deoxy-2,3,6-tri-O-sodium sulfonato-β-D-glucopyranoside] |  |  |  |  |  |  |  |  |  |  | 97 |  |
| CCCCCCCCCCCCCCCCCC(=O)NCCCO[C@@H]1O[C@H](COS(=O)(=O)[O-])[C@@H](O[C@H]2O[C@H](COS(=O)(=O)[O-])[C@@H](O[C@H]3O[C@H](COS(=O)(=O)[O-])[C@@H](O[C@H]4O[C@H](COS(=O)(=O)[O-])[C@@H](OS(=O)(=O)[O-])[C@H](OS(=O)(=O)[O-])[C@H]4OS(=O)(=O)[O-])[C@H](OS(=O)(=O)[O-])[C@H]3OS(=O)(=O)[O-])[C@H](OS(=O)(=O)[O-])[C@H]2OS(=O)(=O)[O-])[C@H](OS(=O)(=O)[O-])[C@H]1OS(=O)(=O)[O-].[Na+].[Na+].[Na+].[Na+].[Na+].[Na+].[Na+].[Na+].[Na+].[Na+].[Na+].[Na+].[Na+] [Compound 128, 3-Stearamidopropyl 2,3,4,6-tetra-O-sulfo-α-D-glucopyranosyl-(1→4)-2,3,6-tri-O-sulfo-α-D-glucopyranosyl-(1→4)-2,3,6-tri-O-sulfo-α-D-glucopyranosyl-(1→4)-2,3,6-tri-O-sulfo-β-D-glucopyranoside, tridecasodium salt] |  |  |  |  |  |  |  |  |  |  |  | 65 |
